Measurements taken from publication PMC8802628, “Selective activation of PFKL suppresses the phagocytic oxidative burst” (Cell, 2021).
Numbering of substitutions follows the chain as printed. Read-outs that look alike come from different tables or passages of the source. Values belong to the compound of their own block, whether it stands above or below them.

Tests used:
[1] = molecular target: T1, PFKL(K315R) (PFKL−pocket) (Homo sapiens, UniProt P17858, K315R); assay: Recombinant PFKL−pocket activity assay; format: biochemical; settings: for EC50: pH 7.5, 3.1 mM ATP, 4 mM F6P, mean ± SEM, read-out: EC50, activation of PFKL−pocket
T1 construct: made in house; host or cells: Sf9 insect cells (baculovirus)
T1 sequence (P17858 1-780 K315R): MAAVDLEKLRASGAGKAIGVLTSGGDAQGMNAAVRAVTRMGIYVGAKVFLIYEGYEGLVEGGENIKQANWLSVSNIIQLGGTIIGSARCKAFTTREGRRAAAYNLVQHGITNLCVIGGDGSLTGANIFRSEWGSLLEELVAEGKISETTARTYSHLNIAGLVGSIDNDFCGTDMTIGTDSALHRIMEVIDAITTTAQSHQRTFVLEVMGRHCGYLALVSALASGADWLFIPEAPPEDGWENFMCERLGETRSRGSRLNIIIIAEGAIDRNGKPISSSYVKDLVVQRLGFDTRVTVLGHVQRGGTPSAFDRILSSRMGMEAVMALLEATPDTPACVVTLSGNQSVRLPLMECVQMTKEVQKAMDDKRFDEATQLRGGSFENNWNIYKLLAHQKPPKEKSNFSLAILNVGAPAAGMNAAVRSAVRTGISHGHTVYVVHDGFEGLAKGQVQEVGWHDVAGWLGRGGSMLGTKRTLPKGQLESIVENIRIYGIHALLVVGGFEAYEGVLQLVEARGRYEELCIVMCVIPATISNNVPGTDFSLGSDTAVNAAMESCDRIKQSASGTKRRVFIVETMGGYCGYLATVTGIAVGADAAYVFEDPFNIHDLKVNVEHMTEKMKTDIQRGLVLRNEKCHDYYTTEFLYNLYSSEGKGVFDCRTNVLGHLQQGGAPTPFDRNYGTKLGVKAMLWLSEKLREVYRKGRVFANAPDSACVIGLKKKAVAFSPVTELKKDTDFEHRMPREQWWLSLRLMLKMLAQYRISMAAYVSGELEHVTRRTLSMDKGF
Source text: (§1) Recombinant N-terminal His-tagged human PFKL (NP_002617), PFKM (NP_000280), and PFKP (NM_002627.4) were generated as described ([Webb et al., 2015], [2017]). Point mutants of PFK1 were generated using the QuikChange Lightning kit (Aligent).
(§2) His-tagged PFK1 was expressed and purified as described with slight modifications ([Webb et al., 2015], [2017]). Briefly, baculovirus was generated using the Bac-to-Bac Expression system (Invitrogen). PFK1 was expressed in 2-5 × 10^6 sf9 cells at a multiplicity of infection of two for 48 h. Cells were lysed in 20 mM HEPES, pH 7.5, 80 mM potassium phosphate, 1 mM 2-mercapentoethanol, 10% glycerol, 10 mM imidazole, and EDTA-free Protease Inhibitor Cocktail (Abcam) with a Dounce homogenizer. The soluble lysate was incubated with HisPur cobalt resin (ThermoFisher Scientific). The resin was washed with 5 bead volumes lysis buffer, 10 bead volumes lysis buffer containing 2 M NaCl, and 5 further bead volumes lysis buffer. PFK1 was eluted in lysis buffer containing 100 mM imidazole. Fractions containing protein were pooled, passed over a desalting column equilibrated in freezing buffer [20 mM HEPES pH 7.5, 1 mM DTT, 500 μM ammonium sulfate, 5% glycerol, 1 mM ATP, and 100 μM EDTA] and concentrated using an Amicon Ultracel-30K Centrifugal Filter Unit (MilliporeSigma). Protein was quantified using a Bradford Protein Assay kit (ThermoFisher Scientific), and aliquotes frozen in liquid nitrogen for storage at −80°C.
(§3) PFK1 activity was determined using the rate of FBP production via an auxiliary enzyme assay adapted to a 96-well format ([Brüser et al., 2012]; [Webb et al., 2015]). The auxiliary enzymes aldolase, triosephosphate isomerase, and glycerol phosphate dehydrogenase were purchased from MilliporeSigma as ammonium sulfate slurries and desalted using an Amicon Ultracel-10K Centrifugal Filter Unit. For assays containing FBP, the rate of ADP production was determined using the auxiliary enzymes pyruvate kinase (PK) and lactate dehydrogenase (LDH) (MilliporeSigma) in a buffer containing 250 μM phosphoenolpyruvic acid, […] NADH, 50 mM HEPES pH 7.5, 100 mM KCl, 1 mM DTT, and effector concentrations as described in the text. The temperature was equilibrated to 25°C for 5 min before initiating the reaction 10 mM MgCl2. Absorbance at 340 nm was measured using a Varioskan LUX Multimode microplate reader (ThermoFisher). Kinetic parameters were generated by nonlinear regression analysis using Prism (GraphPad Software) and are the mean of a minimum of three measurements from two independent preparations of protein. One unit of activity was defined as the amount of enzyme that catalyzed the formation of 1 μmol of fructose 1,6-bisphosphate per min at 25°C. Assays for PFKM were performed at pH 7.0 due to the pH-dependence of ATP inhibition ([Trivedi and Danforth, 1966]).

[2] = molecular target: T2, PFKL (Homo sapiens, UniProt P17858); assay: Recombinant PFKL activity assay (relief of ATP inhibition); format: biochemical
T2 construct: made in house; host or cells: Sf9 insect cells (baculovirus, Bac-to-Bac)
T2 sequence (P17858 1-780): T1 sequence (P17858 1-780 K315R) with R315K
Source text: as §1, §2, §3

[3] = pH 7.5, 3.1 mM ATP, 4 mM F6P, mean ± SEM, read-out: EC50, activation of PFKL wild type
[4] = PFKL−pocket, pH 7.5, 225 μM ATP
[5] = PFKL wild type, pH 7.5, 225 μM ATP

SMILES: CC(=O)Nc1ccc2c(c1)OCc1cc(-c3ccccc3C#CCCCO)nn1C2 [NA-11]
EC50 [1]: 0.167 ± 0.0278 µM | EC50 ([2]; Control (ligand series), pH 7.5, 4.0 mM F6P, 3.1 mM ATP, read-out: EC50, NA-11): 0.012 ± 0.00273 µM | Vmax ([2]; NA-11 titration with 50 μM AMP, pH 7.5, 4.0 mM F6P, 3.1 mM ATP): 18.11 ± 1.23 μmoles FBP per min per mg PFK1 | Vmax ([2]; NA-11 titration with 200 μM FBP, pH 7.5, 4.0 mM F6P, 3.1 mM ATP): 21.31 ± 2.44 μmoles FBP per min per mg PFK1 | Vmax ([2]; NA-11 titration, Control, pH 7.5, 4.0 mM F6P, 3.1 mM ATP): 18.19 ± 1.29 μmoles FBP per min per mg PFK1 | EC50 ([2]; pH 7.0, 4.0 mM F6P, 3.1 mM ATP, mean ± s.e.m., read-out: EC50, NA-11): 0.074 ± 0.0209 µM | EC50 ([2]; pH 7.5 (pH series), 4.0 mM F6P, 3.1 mM ATP, mean ± s.e.m., read-out: EC50, NA-11): 0.0218 ± 0.00621 µM | EC50 [2, 3]: 0.014 ± 0.00291 µM | EC50 ([2]; pH 8.0, 4.0 mM F6P, 3.1 mM ATP, mean ± s.e.m., read-out: EC50, NA-11): 0.00411 ± 0.00092 µM | EC50 ([2]; with 50 μM AMP, pH 7.5, 4.0 mM F6P, 3.1 mM ATP, read-out: EC50, NA-11): 0.0123 ± 0.00338 µM | EC50 ([2]; with 200 μM FBP, pH 7.5, 4.0 mM F6P, 3.1 mM ATP, read-out: EC50, NA-11): 0.012 ± 0.00699 µM

fold change of EC50,NA-5 of PFKL−pocket versus wild-type PFKL [1]: ~ 30 fold | EC50 [1]: 0.615 ± 0.138 µM | EC50 [2, 3]: 0.0192 ± 0.00679 µM
SMILES: CC(=O)Nc1ccc2c(c1)OCc1cc(-c3ccccc3)nn1C2 [NA-5]

hF6P (Hill coefficient) [1, 4]: 3.26 ± 0.48 | hF6P (Hill coefficient) [2, 5]: 3.16 ± 0.89
SMILES: O=C(CO)[C@@H](O)[C@H](O)[C@H](O)COP(=O)(O)O [F6P, fructose 6-phosphate]
Vmax,F6P [1, 4]: 14.68 ± 0.98 micromoles FBP per minute per milligram PFK1 | Vmax,F6P [2, 5]: 13.28 ± 1.69 micromoles FBP per minute per milligram PFK1

EC50 [2, 3]: 0.066 ± 0.0189 µM
SMILES: COc1ccccc1-c1cc2n(n1)Cc1ccc(NC(C)=O)cc1OC2 [LDC7559, reference compound]
